Assay results reported in paper PMC11025887, “The SARM1 TIR domain produces glycocyclic ADPR molecules as minor products” (PLOS ONE, 2024).

Target: T1, Drosophila SARM1 TIR domain (Drosophila melanogaster, UniProt Q6IDD9)
T1 construct: gene Sarm; TIR domain only; N-terminal 6xHis tag kept; codon optimized; E. coli BL21(DE3)
T1 sequence (Q6IDD9 837-981 limits assumed): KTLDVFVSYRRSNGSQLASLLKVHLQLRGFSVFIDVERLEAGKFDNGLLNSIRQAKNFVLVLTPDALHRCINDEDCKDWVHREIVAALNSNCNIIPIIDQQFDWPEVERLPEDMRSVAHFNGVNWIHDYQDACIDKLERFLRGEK
Test: LC-MS/MS of NAD+ and products
Type: biochemical
Conditions: […] protein; […] NAD+; […] HEPES-KOH pH […]; […] NaCl; […] TCEP; […] C; […] h; main product cADPR

Compound: NC(=O)c1ccc[n+]([C@@H]2O[C@H](COP(=O)(O)OP(=O)(O)OC[C@H]3O[C@@H](n4cnc5c(N)ncnc54)[C@H](O)[C@@H]3O)[C@@H](O)[C@H]2O)c1 [NAD^+]
- LC-MS/MS of NAD+ and products: SARM1 TIR domains consumed NAD^+ efficiently
